Measured values published in US20230234965A1, “N-LINKED MACROCYCLIC 4-(PYRAZOL-5-YL)-INDOLE DERIVATIVES AS INHIBITORS OF MCL-1” (Janssen Pharmaceutica NV, priority 2020, published 2023).

Assays:
[1] = biological target: Myeloid Cell Leukemia 1 (Mcl-1) (Homo sapiens, UniProt Q07820); assay: Terbium labeled Mcl-1 HTRF binding assay (displacement of Cy5-labeled BIM BH3 peptide); conditions: 25 pM Tb-Mcl-1, 8 nM Cy5 Bim peptide, [L] = 8 nM, Kd = 10 nM, 60 minutes at room temperature, read-out: Tb-MCL1 Ki
Myeloid Cell Leukemia 1 (Mcl-1), sequence (Q07820 whole entry): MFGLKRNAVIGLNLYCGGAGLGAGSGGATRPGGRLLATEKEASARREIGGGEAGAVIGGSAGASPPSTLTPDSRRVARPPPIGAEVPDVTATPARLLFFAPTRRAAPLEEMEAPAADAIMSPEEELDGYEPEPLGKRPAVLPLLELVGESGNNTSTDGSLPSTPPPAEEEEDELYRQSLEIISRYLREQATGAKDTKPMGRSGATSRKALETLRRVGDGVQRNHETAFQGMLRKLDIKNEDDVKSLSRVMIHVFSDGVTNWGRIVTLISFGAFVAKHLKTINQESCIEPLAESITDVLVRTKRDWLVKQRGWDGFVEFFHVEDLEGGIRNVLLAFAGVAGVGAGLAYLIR
Experimental: Terbium labeled Myeloid Cell Leukemia 1(Mcl-1) homogeneous time-resolved fluorescence (HTRF) binding assay utilizing the BIM BH3 peptide (H2N-(C/Cy5Mal) WIAQELRRIGDEFN-OH) as the binding partner for Mcl-1.
This assay evaluated inhibition of the BH3 domain : Mcl-1 interaction by measuring the displacement of Cy5-labeled BIM BH3 peptide (H2N-(C/Cy5Mal) WIAQELRRIGDEFN-OH) in the HTRF assay format.
The following assay and stock buffers were prepared for use in the assay: (a) Stock buffer: 10 mM Tris-HCl, pH=7.5 + 150 mM NaCl, filtered, sterilized, and stored at 4° C.; and (b) 1X assay buffer, where the following ingredients were added fresh to stock buffer: 2 mM dithiothreitol (DTT), 0.0025% Tween-20, 0.1 mg/mL bovine serum albumin (BSA). The 1X Tb-Mcl-1 + Cy5 Bim peptide solution was prepared by diluting the protein stock solution using the 1X assay buffer (b) to 25 pM Tb-Mcl-1 and 8 nM Cy5 Bim peptide.
Using the Acoustic ECHO, 100 nL of 100x test compound(s) were dispensed into individual wells of a white 384-well Perkin Elmer Proxiplate, for a final compound concentration of 1x and final DMSO concentration of 1%. Inhibitor control and neutral control (NC, 100 nL of 100% DMSO) were stamped into columns 23 and 24 of assay plate, respectively. Into each well of the plate was then dispensed 10µL of the 1X Tb-Mcl-1 + Cy5 Bim peptide solution. The plate was centrifuged with a cover plate at 1000 rpm for 1 minute, then incubated for 60 minutes at room temperature with plates covered. The TR-FRET signal was read on an BMG PHERAStar FSX MicroPlate Reader at room temperature using the HTRF optic module (HTRF: excitation: 337 nm, light source: laser, emission A: 665 nm, emission B: 620 nm, integration start: 60 µs, integration time: 400 µs).
The BMG PHERAStar FSX MicroPlate Reader was used to measure fluorescence intensity at two emission wavelengths - 665 nm and 620 nm - and report relative fluorescence units (RFU) for both emissions, as well as a ratio of the emissions (665 nm/620 nm)*10,000. The RFU values were normalized to percent inhibition as follows: • % inhibition = (((NC - IC) - compound - IC)) / (NC - IC)) *100 where IC (inhibitor control, low signal) = mean signal of 1X Tb-MCl-1 + Cy5 Bim peptide+ inhibitor control or 100% inhibition of Mcl-1; NC (neutral control, high signal) = mean signal 1X Tb-MCl-1 + Cy5 Bim peptide with DMSO only or 0% inhibition An 11-point dose response curve was generated to determine IC50 values (using GenData) based on the following equation:
where Y = % inhibition in the presence of X inhibitor concentration; Top = 100% inhibition derived from the IC (mean signal of Mcl-1 + inhibitor control); Bottom = 0% inhibition derived from the NC (mean signal of Mcl-1 + DMSO); Hillslope = Hill coefficient; and IC50 = concentration of compound with 50% inhibition in relation to top/neutral control (NC).
In this assay [L] = 8 nM and Kd = 10 nM

[2] = test system: MOLP-8 human multiple myeloma cell line; assay: Caspase-Glo 3/7 apoptosis induction assay in MOLP-8 cells; format: cell-based; conditions: MOLP8 cells, 2 hours at 37° C.; 30 µM highest conc.; averaged over all runs on all batches
From the text: MCL-1 is a regulator of apoptosis and is highly over-expressed in tumor cells that escape cell death. The assay evaluates the cellular potency of small-molecule compounds targeting regulators of the apoptosis pathway, primarily MCL-1, Bfl-1, Bcl-2, and other proteins of the Bcl-2 family. Protein-protein inhibitors disrupting the interaction of anti-apoptotic regulators with BH3-domain proteins initiate apoptosis.
The Caspase-Glo® 3/7 Assay is a luminescent assay that measures caspase-3 and -7 activities in purified enzyme preparations or cultures of adherent or suspension cells. The assay provides a proluminescent caspase-3/7 substrate, which contains the tetrapeptide sequence DEVD. This substrate is cleaved to release aminoluciferin, a substrate of luciferase used in the production of light. Addition of the single Caspase-Glo® 3/7 Reagent in an “add-mix-measure” format results in cell lysis, followed by caspase cleavage of the substrate and generation of a “glow-type” luminescent signal.
This assay uses the MOLP-8 human multiple myeloma cell line, which is sensitive to MCL-1 inhibition.
Cell cultures were maintained between 0.2 and 2.0 ×10^6 cells/mL. The cells were harvested by collection in 50 mL conical tubes. The cells were then pelleted at 500 g for 5 mins before removing supernatant and resuspension in fresh pre-warmed culture medium. The cells were counted and diluted as needed.
The assay reagent was prepared by transferring the buffer solution to the substrate vial and mixing. The solution may be stored for up to 1 week at 4° C. with negligible loss of signal.
Compounds were delivered in assay-ready plates (Proxiplate) and stored at -20° C. Assays always include 1 reference compound plate containing reference compounds. The plates were spotted with 40 nL of compounds (0.5% DMSO final in cells; serial dilution; 30 µM highest conc. ⅓ dilution, 10 doses, duplicates). The compounds were used at room temperature and 4 µL of pre-warmed media was added to all wells except column 2 and 23. The negative control was prepared by adding 1% DMSO in media. The positive control was prepared by adding the appropriate positive control compound in final concentration of 60 µM in media. The plate was prepared by adding 4 µL negative control to column 23, 4 µL positive control to column 2 and 4 µL cell suspension to all wells in the plate. The plate with cells was then incubated at 37° C. for 2 hours. The assay signal reagent is the Caspase-Glo solution described above, and 8 µL was added to all wells. The plates were then sealed and measured after 30 minutes.
The activity of a test compound was calculated as percent change in apoptosis induction as follows:
• %Effect (AC50) = 100 - ((sample-LC) / (HC-LC)) *100 • %Control = (sample /HC)* 100 • %Control min = ((sample-LC) / (HC-LC)) *100

| Compound | Ki [1] [nM] | AC50 [2] [nM] |
| --- | --- | --- |
| Cc1nn2c(c1C)-c1c(Cl)ccc3c1c(C)c(C(=O)O)n3CCCOc1cc(cc3ccccc13)SCc1cn(nn1)CCC2 (single isomer, unassigned) [Compound 5] | 5.21 | 8180 |
| Cc1nn2c(c1C)-c1c(Cl)ccc3c1c(C)c(C(=O)O)n3CCCOc1cc(cc3ccccc13)SCc1cnn(c1)CCC2 (single isomer, unassigned) [Compound 8] | 422 | 27500 |
| Cc1nn2c(c1C)-c1c(Cl)ccc3c1c(C)c(C(=O)O)n3CCCOc1cc(cc3ccccc13)SCc1cc(nn1C)CCC2 (single isomer, unassigned) [Compound 3] | 0.1 | 131 |
| Cc1nn2c(c1C)-c1c(Cl)ccc3c1c(C)c(C(=O)O)n3CCCOc1cc(cc3cc(F)ccc13)CCc1cc(nn1C)CCC2 (single isomer, unassigned) [Compound 2] | 3.28 | 1930 |
| Cc1nn2c(c1C)-c1c(Cl)ccc3c1c(C)c(C(=O)O)n3CCCOc1cc(cc3ccccc13)SCc1cnn(c1)CCC2 (single isomer, unassigned) [Compound 7] | 0.95 | 3180 |
| Cc1nn2c(c1C)-c1c(Cl)ccc3c1c(C)c(C(=O)O)n3CCCOc1cc(cc3ccccc13)SCc1cn(nn1)CCC2 (single isomer, unassigned) [Compound 6] | 445 | > 30000 |
| Cc1nn2c(c1C)-c1c(Cl)ccc3c1c(C)c(C(=O)O)n3CCCOc1cc(cc3ccccc13)SCc1cc(nn1C)CCC2 (single isomer, unassigned) [Compound 4] | 1.57 | 4010 |
| Cc1nn2c(c1C)-c1c(Cl)ccc3c1c(C)c(C(=O)O)n3CCCOc1cc(cc3cc(F)ccc13)CCc1cc(nn1C)CCC2 (single isomer, unassigned) [Compound 1] | 0.04 | 26 |
